Measured values as given in patent publication US10329294B2, “Pyrazolopyrimidine inhibitors of IRAK4 activity” (MERCK SHARP & DOHME CORP., priority 2015, dated 2019).
Structures can show the parent of a compound that is named as a salt.

Molecular target: IRAK4 (Homo sapiens (Human), UniProt Q9NWZ3)
Assay: IRAK4 Kinase Assay
Assay type: biochemical
Details: IMAP fluorescence polarization, 0.5 nM GST tagged IRAK4, 100 μM ATP, 30 minutes at 25° C.; read-out: IRAK4 IC50

Sequence of IRAK4 (Q9NWZ3 whole entry): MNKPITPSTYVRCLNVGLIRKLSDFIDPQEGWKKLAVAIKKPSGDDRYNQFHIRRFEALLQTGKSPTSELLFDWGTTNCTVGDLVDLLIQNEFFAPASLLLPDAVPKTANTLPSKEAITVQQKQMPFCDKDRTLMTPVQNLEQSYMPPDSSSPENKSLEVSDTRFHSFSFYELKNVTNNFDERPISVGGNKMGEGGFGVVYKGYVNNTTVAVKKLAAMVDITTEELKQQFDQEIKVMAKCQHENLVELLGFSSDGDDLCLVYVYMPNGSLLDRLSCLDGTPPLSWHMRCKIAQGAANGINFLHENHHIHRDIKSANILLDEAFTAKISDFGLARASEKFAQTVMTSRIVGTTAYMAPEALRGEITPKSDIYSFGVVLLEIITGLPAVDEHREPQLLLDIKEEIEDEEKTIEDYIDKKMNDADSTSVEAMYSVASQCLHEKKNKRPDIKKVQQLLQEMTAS

Row | IC50 [nM] | Compound
1 | 876 | Cn1cc(NC(=O)c2cnn3ccc(N[C@@H]4CNC[C@H](F)C4)nc23)c(C(F)(F)F)n1 [Example 254, 5-(((3S,5R)-5-Fluoropiperidin-3-yl)amino)-N-(1-methyl-3-(trifluoromethyl)-1H-pyrazol-4-yl)pyrazolo[1,5-a]pyrimidine-3-carboxamide]
2 | 24 | CN[C@H]1CCCC[C@H]1Nc1ccn2ncc(C(=O)Nc3cn(C)nc3C(F)(F)F)c2n1 [Example 262, N-(1-Methyl-3-(trifluoromethyl)-1H-pyrazol-4-yl)-5-(((1R,2S)-2-(methylamino)cyclohexyl)amino)pyrazolo[1,5-a]pyrimidine-3-carboxamide]
3 | 72 | CN(C)[C@H]1CCCC[C@H]1Nc1ccn2ncc(C(=O)Nc3cn(C)nc3C(F)(F)F)c2n1 [Example 263, 5-(((1R,2S)-2-(Dimethylamino)cyclohexyl)amino)-N-(1-methyl-3-(trifluoromethyl)-1H-pyrazol-4-yl)pyrazolo[1,5-a]pyrimidine-3-carboxamide]
4 | 19 | Cn1cc(NC(=O)c2cnn3ccc(N[C@@H]4CCCC[C@@H]4N4CCOCC4)nc23)c(C(F)(F)F)n1 [Example 264, N-(1-Methyl-3-(trifluoromethyl)-1H-pyrazol-4-yl)-5-(((1R,2S)-2-morpholinocyclohexyl)amino)pyrazolo[1,5-a]pyrimidine-3-carboxamide]
5 | 1 | N#Cc1ccccc1NC(=O)c1cnn2ccc(N[C@@H]3CCCC[C@@H]3N)nc12 [Example 265, 5-(((1R,2S)-2-Aminocyclohexyl)amino)-N-(2-cyanophenyl)pyrazolo[1,5-a]pyrimidine-3-carboxamide]
6 | 562 | N#Cc1ccccc1NC(=O)c1cnn2ccc(N[C@@H]3CCCC[C@@H]3O)nc12 [Example 266, N-(2-cyanophenyl)-5-{[(1R,2S)-2-hydroxycyclohexyl]amino}pyrazolo[1,5-a]pyrimidine-3-carboxamide trifluoroacetate]
7 | 351 | N#Cc1ccccc1NC(=O)c1cnn2ccc(N3CCNCC4(CC4)C3)nc12 [Example 267, N-(2-cyanophenyl)-5-(5,8-diazaspiro[2.6]non-5-yl)pyrazolo[1,5-a]pyrimidine-3-carboxamide trifluoroacetate]
8 | 143 | N#Cc1ccccc1NC(=O)c1cnn2ccc(N3CCC[C@@H](N)C3)nc12 [Example 269, 5-[(3R)-3-aminopiperidin-1-yl]-N-(2-cyanophenyl)pyrazolo[1,5-a]pyrimidine-3-carboxamide trifluoroacetate]
9 | 10 | N#Cc1ccccc1NC(=O)c1cnn2ccc(N[C@@H]3CCCNC3)nc12 [Example 270, N-(2-cyanophenyl)-5-[(3R)-piperidin-3-ylamino]pyrazolo[1,5-a]pyrimidine-3-carboxamide trifluoroacetate]
10 | 403 | N#Cc1ccccc1NC(=O)c1cnn2ccc(N3CC4CCC3CN4)nc12 (stereo not shown) [Example 271, N-(2-cyanophenyl)-5-(2,5-diazabicyclo[2.2.2]oct-2-yl)pyrazolo[1,5-a]pyrimidine-3-carboxamide trifluoroacetate]
11 | 57 | N#Cc1ccccc1NC(=O)c1cnn2ccc(NC3CCCCNC3)nc12 (stereo not shown) [Example 272, 5-(azepan-3-ylamino)-N-(2-cyanophenyl)pyrazolo[1,5-a]pyrimidine-3-carboxamide trifluoroacetate]
12 | 1360 | N#Cc1ccccc1NC(=O)c1cnn2ccc(N3CCCNCC3)nc12 [Example 273, N-(2-cyanophenyl)-5-(1,4-diazepan-1-yl)pyrazolo[1,5-a]pyrimidine-3-carboxamide trifluoroacetate]
13 | 660 | N#Cc1ccccc1NC(=O)c1cnn2ccc(N3CCNCC3)nc12 [Example 274, N-(2-cyanophenyl)-5-piperazin-1-ylpyrazolo[1,5-a]pyrimidine-3-carboxamide trifluoroacetate]
14 | 17 | N[C@H]1CCCC[C@H]1Nc1ccn2ncc(C(=O)Nc3csc(CO)c3)c2n1 [Example 275, 5-(((1R,2S)-2-Aminocyclohexyl)amino)-N-(5-(hydroxymethyl)thiophen-3-yl)pyrazolo[1,5-a]pyrimidine-3-carboxamide]
15 | 64 | CC(O)c1cc(NC(=O)c2cnn3ccc(N[C@@H]4CCCC[C@@H]4N)nc23)cs1 (stereo partly drawn) [Example 276, 5-(((1R,2S)-2-Aminocyclohexyl)amino)-N-(5-(1-hydroxyethyl)thiophen-3-yl)pyrazolo[1,5-a]pyrimidine-3-carboxamide]
16 | 9 | N[C@@H]1CCCC[C@@H]1Nc1ccn2ncc(C(=O)Nc3cnn(-c4cccnc4)c3)c2n1 [Example 278, 5-{[(1S,2R)-2-aminocyclohexyl]amino}-N-(1-pyridin-3-yl-1H-pyrazol-4-yl)pyrazolo[1,5-a]pyrimidine-3-carboxamide trifluoroacetate]
17 | 76 | COCCc1nn(C)cc1NC(=O)c1cnn2ccc(N[C@@H]3CCCC[C@@H]3N)nc12 [Example 283, 5-{[(1R,2S)-2-aminocyclohexyl]amino}-N-[3-(2-methoxyethyl)-1-methyl-1H-pyrazol-4-yl]pyrazolo[1,5-a]pyrimidine-3-carboxamide trifluoroacetate]
18 | 24 | Cc1cnc(-c2nn(C)cc2NC(=O)c2cnn3ccc(N[C@@H]4CCCC[C@@H]4N)nc23)o1 [Example 285, 5-{[(1R,2S)-2-aminocyclohexyl]amino}-N-[1-methyl-3-(5-methyl-1,3-oxazol-2-yl)-1H-pyrazol-4-yl]pyrazolo[1,5-a]pyrimidine-3-carboxamide trifluoroacetate]
19 | 7 | Cn1cc(NC(=O)c2cnn3ccc(N[C@@H]4CCCC[C@@H]4N)nc23)c(-c2nncn2C)n1 [Example 286, 5-{[(1R,2S)-2-aminocyclohexyl]amino}-N-[1-methyl-3-(4-methyl-4H-1,2,4-triazol-3-yl)-1H-pyrazol-4-yl]pyrazolo[1,5-a]pyrimidine-3-carboxamide trifluoroacetate]
20 | 3 | Cn1cc(NC(=O)c2cnn3ccc(N[C@@H]4CCCC[C@@H]4N)nc23)c(CCF)n1 [Example 289, 5-{[(1R,2S)-2-aminocyclohexyl]amino}-N-[3-(2-fluoroethyl)-1-methyl-1H-pyrazol-4-yl]pyrazolo[1,5-a]pyrimidine-3-carboxamide trifluoroacetate]
21 | 977 | Cn1cc(NC(=O)c2cnn3ccc(NCCN4CCOCC4)nc23)c(C(F)(F)F)n1 [Example 290, N-[1-methyl-3-(trifluoromethyl)-1H-pyrazol-4-yl]-5-[(2-morpholin-4-ylethyl)amino]pyrazolo[1,5-a]pyrimidine-3-carboxamide trifluoroacetate]
22 | 0.8 | CC(C)n1cc(NC(=O)c2cnn3ccc(N[C@@H]4CCCC[C@@H]4N)nc23)c(C(F)(F)F)n1 [Example 291, 5-{[(1R,2S)-2-aminocyclohexyl]amino}-N-[1-(1-methylethyl)-3-(trifluoromethyl)-1H-pyrazol-4-yl]pyrazolo[1,5-a]pyrimidine-3-carboxamide trifluoroacetate]

Row | Compound | IC50 [nM]
23 | Cn1cc(NC(=O)c2cnn3ccc(N[C@@H]4CNC[C@@H](F)C4)nc23)c(C(F)(F)F)n1 [Example 255, 5-{[(3S,5S)-5-fluoropiperidin-3-yl]amino}-N-[1-methyl-3-(trifluoromethyl)-1H-pyrazol-4-yl]pyrazolo[1,5-a]pyrimidine-3-carboxamide] | 36
24 | Cn1cc(NC(=O)c2cnn3ccc(N[C@@H]4CNC[C@@H](F)C4)nc23)c(C(F)F)n1 [Example 256, N-[3-(difluoromethyl)-1-methyl-1H-pyrazol-4-yl]-5-{[(3S,5S)-5-fluoropiperidin-3-yl]amino}pyrazolo[1,5-a]pyrimidine-3-carboxamide] | 8
25 | Cn1cc(NC(=O)c2cnn3ccc(N[C@H]4CNC[C@@H](F)C4)nc23)c(C(F)(F)F)n1 [Example 257, 5-{[(3R,5S)-5-fluoropiperidin-3-yl]amino}-N-[1-methyl-3-(trifluoromethyl)-1H-pyrazol-4-yl]pyrazolo[1,5-a]pyrimidine-3-carboxamide hydrochloride] | 0.6
26 | Cn1cc(NC(=O)c2cnn3ccc(N[C@H]4CNC[C@@H](F)C4)nc23)c(C(F)F)n1 [Example 258, N-[3-(difluoromethyl)-1-methyl-1H-pyrazol-4-yl]-5-{[(3R,5S)-5-fluoropiperidin-3-yl]amino}pyrazolo[1,5-a]pyrimidine-3-carboxamide hydrochloride] | 0.5
27 | Cn1cc(NC(=O)c2cnn3ccc(N[C@@H]4CNC[C@H](F)C4)nc23)c(C(F)F)n1 [Example 259, N-[3-(difluoromethyl)-1-methyl-1H-pyrazol-4-yl]-5-{[(3S,5R)-5-fluoropiperidin-3-yl]amino}pyrazolo[1,5-a]pyrimidine-3-carboxamide] | 156
28 | Cn1cc(NC(=O)c2cnn3ccc(N[C@H]4CNC[C@H](F)C4)nc23)c(C(F)(F)F)n1 [Example 260, 5-{[(3R,5R)-5-fluoropiperidin-3-yl]amino}-N-[1-methyl-3-(trifluoromethyl)-1H-pyrazol-4-yl]pyrazolo[1,5-a]pyrimidine-3-carboxamide] | 4
29 | Cn1cc(NC(=O)c2cnn3ccc(N[C@H]4CNC[C@H](F)C4)nc23)c(C(F)F)n1 [Example 261, N-[3-(difluoromethyl)-1-methyl-1H-pyrazol-4-yl]-5-{[(3R,5R)-5-fluoropiperidin-3-yl]amino}pyrazolo[1,5-a]pyrimidine-3-carboxamide trifluoroacetate] | 0.5
30 | N#Cc1ccccc1NC(=O)c1cnn2ccc(N[C@@H]3CCCC(F)(F)[C@@H]3N)nc12 [Example 268, 5-{[(1R,2R)-2-amino-3,3-difluorocyclohexyl]amino}-N-(2-cyanophenyl)pyrazolo[1,5-a]pyrimidine-3-carboxamide] | 268
31 | Cc1nc(-c2nn(C)cc2NC(=O)c2cnn3ccc(N[C@@H]4CCCC[C@@H]4N)nc23)no1 [Example 288, 5-{[(1R,2S)-2-aminocyclohexyl]amino}-N-[1-methyl-3-(5-methyl-1,2,4-oxadiazol-3-yl)-1H-pyrazol-4-yl]pyrazolo[1,5-a]pyrimidine-3-carboxamide] | 10
